System: 4 PI3K isoforms (Human recombinant GST-PI3K)
Assay: PI3K scintillation proximity assay, best IC50 obtained with the four isoforms (alpha, beta, delta, gamma)
Type: biochemical
Conditions: best IC50 obtained with the four isoforms of PI3K; read-out: Best potency measured on the 4 PI3K isoforms

Row | SMILES | IC50
1 | Cc1ccccc1-c1cccc(-n2nc(C(=O)N3CCOCC3)c3c2-c2ccccc2S(=O)(=O)C3)c1 [Example 160, 1-(2′-Methylbiphenyl-3-yl)-3-(morpholin-4-ylcarbonyl)-1,4-dihydrothiochromeno[4,3-c]pyrazole 5,5-dioxide] | 1.07 µM
2 | Cc1ccccc1-c1ccc(-n2nc(C(=O)N3CCOCC3)c3c2-c2ccccc2S(=O)(=O)C3)cc1 [Example 161, 1-(2′-Methylbiphenyl-4-yl)-3-(morpholin-4-ylcarbonyl)-1,4-dihydrothiochromeno[4,3-c]pyrazole 5,5-dioxide] | 6.47 µM
3 | O=C(c1nn(-c2ccccc2)c2c1CS(=O)(=O)c1ccc(CN3CCOCC3)cc1-2)N1CCOCC1 [Example 162, 3-(Morpholin-4-ylcarbonyl)-8-(morpholin-4-ylmethyl)-1-phenyl-1,4-dihydrothiochromeno[4,3-c]pyrazole 5,5-dioxide] | 1.62 µM
4 | CC1CN(C(=O)c2nn(-c3ccccc3)c3c2CS(=O)(=O)c2ccccc2-3)CCO1 (stereo not drawn) [Example 163, 3-[(2-Methylmorpholin-4-yl)carbonyl]-1-phenyl-1,4-dihydrothiochromeno[4,3-c]pyrazole 5,5-dioxide] | 2.16 µM
5 | Nc1ccc2c(c1)S(=O)(=O)Cc1c(C(=O)N3CCOCC3)nn(-c3ccccc3)c1-2 [Example 165, 3-(Morpholin-4-ylcarbonyl)-1-phenyl-1,4-dihydrothiochromeno[4,3-c]pyrazol-7-amine 5,5-dioxide] | 1.13 µM
6 | O=C(c1nn(-c2cccc(Nc3ccccc3)c2)c2c1CS(=O)(=O)c1ccccc1-2)N1CCOCC1 [Example 166, {3-[3-(Morpholin-4-ylcarbonyl)-5,5-dioxidothiochromeno[4,3-c]pyrazol-1 (4H)-yl]phenyl}phenylamine] | 2.69 µM
7 | O=C(c1nn(-c2ccc(CN3CCC(F)CC3)cc2)c2c1CS(=O)(=O)c1ccccc1-2)N1CCOCC1 [Example 167, 1-{4-[(4-Fluoropiperidin-1-yl)methyl]phenyl}-3-(morpholin-4-ylcarbonyl)-1,4-dihydrothiochromeno[4,3-c]pyrazole 5,5-dioxide] | 0.247 µM
8 | O=C(c1nn(-c2ccc(CN3CCCCC3)cc2)c2c1CS(=O)(=O)c1ccccc1-2)N1CCOCC1 [Example 169, 3-(Morpholin-4-ylcarbonyl)-1-[4-(piperidin-1-ylmethyl)phenyl]-1,4-dihydrothiochromeno[4,3-c]pyrazole 5,5-dioxide] | 0.11 µM
9 | O=C(c1nn(C2CCC(F)(F)CC2)c2c1CS(=O)(=O)c1ccccc1-2)N1CCOCC1 [Example 170, 1-(4,4-Difluorocyclohexyl)-3-(morpholin-4-ylcarbonyl)-1,4-dihydrothiochromeno[4,3-c]pyrazole 5,5-dioxide] | 0.386 µM
10 | CC1(C)CCCC(n2nc(C(=O)N3CCOCC3)c3c2-c2ccccc2S(=O)(=O)C3)C1 (stereo not drawn) [Example 171, 1-(3,3-Dimethylcyclohexyl)-3-(morpholin-4-ylcarbonyl)-1,4-dihydrothiochromeno[4,3-c]pyrazole 5,5-dioxide] | 0.498 µM
11 | COCCCN1CCCC(n2nc(C(=O)N3CCOCC3)c3c2-c2ccccc2S(=O)(=O)C3)C1 (stereo not drawn) [Example 172, 1-[1-(3-Methoxypropyl)piperidin-3-yl]-3-(morpholin-4-ylcarbonyl)-1,4-dihydrothiochromeno[4,3-c]pyrazole 5,5-dioxide] | 0.14 µM
12 | CC(C)CCN1CCCC(n2nc(C(=O)N3CCOCC3)c3c2-c2ccccc2S(=O)(=O)C3)C1 (stereo not drawn) [Example 173, 1-[1-(3-Methylbutyl)piperidin-3-yl]-3-(morpholin-4-ylcarbonyl)-1,4-dihydrothiochromeno[4,3-c]pyrazole 5,5-dioxide] | 0.138 µM
13 | O=C(c1nn(C2CCCN(Cc3ccccc3)C2)c2c1CS(=O)(=O)c1ccccc1-2)N1CCOCC1 (stereo not drawn) [Example 174, 1-(1-Benzylpiperidin-3-yl)-3-(morpholin-4-ylcarbonyl)-1,4-dihydrothiochromeno[4,3-c]pyrazole 5,5-dioxide] | 0.54 µM
14 | O=C(c1nn(C2CCCN(CCN3CCOCC3)C2)c2c1CS(=O)(=O)c1ccccc1-2)N1CCOCC1 (stereo not drawn) [Example 175, 3-(Morpholin-4-ylcarbonyl)-1-[1-(2-morpholin-4-ylethyl)piperidin-3-yl]-1,4-dihydrothiochromeno[4,3-c]pyrazole 5,5-dioxide] | 0.122 µM
15 | CN(C)c1cccc(-n2nc(C(=O)N3CCOCC3)c3c2-c2ccccc2S(=O)(=O)C3)c1 [Example 177, N,N-Dimethyl-3-[3-(morpholin-4-ylcarbonyl)-5,5-dioxidothiochromeno[4,3-c]pyrazol-1 (4H)-yl]aniline] | 4.72 µM
16 | O=C(c1nn(-c2cccc(CN3CCCCC3)c2)c2c1CS(=O)(=O)c1ccccc1-2)N1CCOCC1 [Example 178, 3-(Morpholin-4-ylcarbonyl)-1-[3-(piperidin-1-ylmethyl)phenyl]-1,4-dihydrothiochromeno[4,3-c]pyrazole 5,5-dioxide] | 0.394 µM
17 | CN(C)Cc1cccc(-n2nc(C(=O)N3CCOCC3)c3c2-c2ccccc2S(=O)(=O)C3)c1 [Example 179, N,N-Dimethyl-1-{3-[3-(morpholin-4-ylcarbonyl)-5,5-dioxidothiochromeno[4,3-c]pyrazol-1 (4H)-yl]phenyl}methanamine] | 1.11 µM

Row | SMILES | IC50
18 | CS(=O)(=O)Nc1cccc(-n2nc(C(=O)N3CCOCC3)c3c2-c2ccccc2S(=O)(=O)C3)c1 [Example 180, N-{3-[3-(Morpholin-4-ylcarbonyl)-5,5-dioxidothiochromeno[4,3-c]pyrazol-1 (4H)-yl]phenyl)methanesulfonamide] | 1.78 µM
19 | O=C(c1nn(-c2cccc(N3CCCC3)c2)c2c1CS(=O)(=O)c1ccccc1-2)N1CCOCC1 [Example 181, 3-(Morpholin-4-ylcarbonyl)-1-(3-pyrrolidin-1-ylphenyl)-1,4-dihydrothiochromeno[4,3-c]pyrazole 5,5-dioxide] | 4.95 µM
20 | Cc1nnc(-c2cccc(-n3nc(C(=O)N4CCOCC4)c4c3-c3ccccc3S(=O)(=O)C4)c2)o1 [Example 182, 1-[3-(5-Methyl-1,3,4-oxadiazol-2-yl)phenyl]-3-(morpholin-4-ylcarbonyl)-1,4-dihydrothiochromeno[4,3-c]pyrazole 5,5-dioxide] | 1.2 µM
21 | Cc1nnc(-c2cccc(-n3nc(C(=O)N4CCOCC4)c4c3-c3ccccc3S(=O)(=O)C4)c2)s1 [Example 183, 1-[3-(5-Methyl-1,3,4-thiadiazol-2-yl)phenyl]-3-(morpholin-4-ylcarbonyl)-1,4-dihydrothiochromeno[4,3-c]pyrazole 5,5-dioxide] | 0.661 µM
22 | Cc1noc(C)c1-c1cccc(-n2nc(C(=O)N3CCOCC3)c3c2-c2ccccc2S(=O)(=O)C3)c1 [Example 184, 1-[3-(3,5-Dimethylisoxazol-4-yl)phenyl]-3-(morpholin-4-ylcarbonyl)-1,4-dihydrothiochromeno[4,3-c]pyrazole 5,5-dioxide] | 0.3 µM
23 | Cn1cc(-c2cccc(-n3nc(C(=O)N4CCOCC4)c4c3-c3ccccc3S(=O)(=O)C4)c2)cn1 [Example 185, 1-[3-(1-Methyl-1H-pyrazol-4-yl)phenyl]-3-(morpholin-4-ylcarbonyl)-1,4-dihydrothiochromeno[4,3-c]pyrazole 5,5-dioxide] | 0.184 µM
24 | Nc1ncc(-c2cccc(-n3nc(C(=O)N4CCOCC4)c4c3-c3ccccc3S(=O)(=O)C4)c2)cn1 [Example 186, 5-{3-[3-(Morpholin-4-ylcarbonyl)-5,5-dioxidothiochromeno[4,3-c]pyrazol-1 (4H)-yl]phenyl}pyrimidin-2-amine] | 0.454 µM
25 | O=C(c1nn(-c2cccc(-c3ccncc3)c2)c2c1CS(=O)(=O)c1ccccc1-2)N1CCOCC1 [Example 187, 3-(Morpholin-4-ylcarbonyl)-1-(3-pyridin-4-ylphenyl)-1,4-dihydrothiochromeno[4,3-c]pyrazole 5,5-dioxide] | 0.193 µM
26 | O=C(c1nn(-c2cccc(-c3cnn(CCN4CCOCC4)c3)c2)c2c1CS(=O)(=O)c1ccccc1-2)N1CCOCC1 [Example 188, 3-(Morpholin-4-ylcarbonyl)-1-{3-[1-(2-morpholin-4-ylethyl)-1H-pyrazol-4-yl]phenyl)-1,4-dihydrothiochromeno[4,3-c]pyrazole 5,5-dioxide] | 0.338 µM
27 | O=C(c1nn(-c2cccc(-c3nccs3)c2)c2c1CS(=O)(=O)c1ccccc1-2)N1CCOCC1 [Example 189, 3-(Morpholin-4-ylcarbonyl)-1-[3-(1,3-thiazol-2-yl)phenyl]-1,4-dihydrothiochromeno[4,3-c]pyrazole 5,5-dioxide] | 4.22 µM
28 | COCCN1CCC(Cn2nc(C(=O)N3CCOCC3)c3c2-c2ccccc2S(=O)(=O)C3)CC1 [Example 190, 1-{[1-(2-Methoxyethyl)piperidin-4-yl]methyl}-3-(morpholin-4-ylcarbonyl)-1,4-dihydrothiochromeno[4,3-c]pyrazole 5,5-dioxide] | 0.681 µM
29 | CC(=O)N1CCC(Cn2nc(C(=O)N3CCOCC3)c3c2-c2ccccc2S(=O)(=O)C3)CC1 [Example 191, 1-[(1-Acetylpiperidin-4-yl)methyl]-3-(morpholin-4-ylcarbonyl)-1,4-dihydrothiochromeno[4,3-c]pyrazole 5,5-dioxide] | 2.83 µM
30 | O=C(c1nn(-c2ccccc2)c2c1CS(=O)(=O)c1sccc1-2)N1CCOCC1 [Example 192, 3-(Morpholin-4-ylcarbonyl)-1-phenyl-1,4-dihydrothieno[3′,2′:5,6]thiopyrano[4,3-c]pyrazole 5,5-dioxide] | 1.7 µM
31 | O=C(c1nn(C2CCCC(C(=O)N3CCCCC3)C2)c2c1CS(=O)(=O)c1ccccc1-2)N1CCOCC1 (stereo not drawn) [Example 193, 3-(Morpholin-4-ylcarbonyl)-1-[3-(piperidin-1-ylcarbonyl)cyclohexyl]-1,4-dihydrothiochromeno[4,3-c]pyrazole 5,5-dioxide] | 0.362 µM
32 | Cn1cc(-n2nc(C(=O)N3CCOCC3)c3c2-c2ccsc2S(=O)(=O)C3)ccc1=O [Example 195, 1-Methyl-5-[3-(morpholin-4-ylcarbonyl)-5,5-dioxidothieno[3′,2′:5,6]thiopyrano[4,3-c]pyrazole-1 (4H)-yl]pyridin-2 (1H)-one] | 2.69 µM
33 | Cc1noc(-c2cccc(-n3nc(C(=O)N4CCOCC4)c4c3-c3ccccc3S(=O)(=O)C4)c2)n1 [Example 196, 1-[3-(3-Methyl-1,2,4-oxadiazol-5-yl)phenyl]-3-(morpholin-4-ylcarbonyl)-1,4-dihydrothiochromeno[4,3-c]pyrazole 5,5-dioxide] | 2.69 µM

Reference: patent publication US9073940B2, “Tricyclic pyrazol amine derivatives” (MERCK SERONO SA, priority 2009, dated 2015)
